The target of the assay is T1, PD-1/PD-L1 (Homo sapiens, UniProt Q9NZQ7).
T1 construct: TVMV protease site (C); made in house; host or cells: HEK293T cells
The assay is described as follows: PD-1/PD-L1 Homogenous Time-Resolved Fluorescence (HTRF) binding assay. Conditions: PD-1-Ig 20 nM. From the text:
The ability of the compounds of formula (I) to bind to PD-L1 was investigated using a PD-1/PD-L1 Homogenous Time-Resolved Fluorescence (HTRF) binding assay.
The interaction of PD-1 and PD-L1 can be assessed using soluble, purified preparations of the extracellular domains of the two proteins. The PD-1 and PD-L1 protein extracellular domains were expressed as fusion proteins with detection tags, for PD-1, the tag was the Fc portion of Immunoglobulin (PD-1-Ig) and for PD-L1 it was the 6 histidine motif (PD-L1-His). All binding studies were performed in an HTRF assay buffer consisting of dPBS supplemented with 0.1% […] bovine serum albumin and 0.05% (v/v) Tween-20. For the h/PD-L1-His binding assay, inhibitors were pre-incubated with PD-L1-His (10 nM final) for 15 m in 4 μl of assay buffer, followed by addition of PD-1-Ig (20 nM final) in 1 μl of assay buffer and further incubation for 15 m. HTRF detection was achieved using europium crypate-labeled anti-Ig (1 nM final) and allophycocyanin (APC) labeled anti-His (20 nM final). Antibodies were diluted in HTRF detection buffer and 5 μl was dispensed on top of the binding reaction. The reaction mixture was allowed to equilibrate for 30 minutes and the resulting signal (665 nm/620 nm ratio) was obtained using an EnVision fluorometer. Additional binding assays were established between the human proteins PD-1-Ig/PD-L2-His (20 & 5 nM, respectively) and CD80-His/PD-L1-Ig (100 & 10 nM, respectively).
Recombinant Proteins: Human PD-1 (25-167) with a C-terminal human Fc domain of immunoglobulin G (Ig) epitope tag [hPD-1 (25-167)-3S-IG] and human PD-L1 (18-239) with a C-terminal His epitope tag [hPD-L1(18-239)-TVMV-His] were expressed in HEK293T cells and purified sequentially by ProteinA affinity chromatography and size exclusion chromatography. Human PD-L2-His and CD80-His was obtained through commercial sources.
Table 1 lists the IC50 values for representative examples of this disclosure measured in the PD-1/PD-L1 Homogenous Time-Resolved Fluorescence (HTRF) binding assay.
For orientation: TR-FRET usually uses a lanthanide donor and a delayed reading to cut background.

Where [1] appears, read: PD-L1-His 10 nM, read-out: HTRF IC50.

pIC50: −log10 of the molar value. Read-outs that look alike come from different tables or passages of the source. Positions of bridges follow the written chain, without caps; N, C: chain ends. Non-standard residues stand in square brackets, D forms with d. Residues, ends and D or L forms follow the SMILES beside them. *: point of attachment. Cholesteryloxycarbonyl = CC(C)CCC[C@@H](C)[C@H]1CC[C@H]2[C@@H]3CC=C4C[C@@H](OC(=O)*)CC[C@]4(C)[C@H]3CC[C@]12C; Chenodeoxycholyl = C[C@H](CCC(=O)*)[C@H]1CC[C@H]2[C@@H]3[C@H](O)C[C@@H]4C[C@H](O)CC[C@]4(C)[C@H]3CC[C@]12C; Cholyl = C[C@H](CCC(=O)*)[C@H]1CC[C@H]2[C@@H]3[C@H](O)C[C@@H]4C[C@H](O)CC[C@]4(C)[C@H]3C[C@H](O)[C@]12C; Lithocholoyl = C[C@H](CCC(=O)*)[C@H]1CC[C@H]2[C@@H]3CC[C@@H]4C[C@H](O)CC[C@]4(C)[C@H]3CC[C@]12C; Trp(1-CH2CO2Me) = COC(=O)Cn1cc(C[C@H](N)C(=O)O)c2ccccc21; Trp(1-CH2COOH) = N[C@@H](Cc1cn(CC(=O)O)c2ccccc12)C(=O)O; Hyp = O=C(O)[C@@H]1C[C@@H](O)CN1; NMeNle = CCCC[C@H](NC)C(=O)O; NMeA = CN[C@@H](C)C(=O)O; Dab = NCC[C@H](N)C(=O)O; Dap = NC[C@H](N)C(=O)O

The values that follow come from patent US20230183292A1, “IMMUNOMODULATORS” (priority 2020, published 2023).

Usually pIC50 stands for −log10 of the IC50, conventionally taken in molar units.

T1 sequence (Q9NZQ7 18-239): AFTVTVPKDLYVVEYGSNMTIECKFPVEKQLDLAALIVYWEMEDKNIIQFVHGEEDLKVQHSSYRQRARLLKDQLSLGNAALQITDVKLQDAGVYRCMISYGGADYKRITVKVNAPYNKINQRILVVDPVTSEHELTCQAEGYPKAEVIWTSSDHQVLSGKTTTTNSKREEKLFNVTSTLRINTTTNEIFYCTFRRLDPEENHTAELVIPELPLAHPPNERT

Turning to `CCCC[C@H]1C(=O)N(C)[C@@H](CCCC)C(=O)N[C@@H](CC(C)C)C(=O)N[C@H](C(=O)NCC(N)=O)CSCC(=O)N[C@@H](Cc2ccc(O)cc2)C(=O)N(C)[C@@H](C)C(=O)N[C@@H](CC(N)=O)C(=O)N2CCC[C@H]2C(=O)N[C@@H](CNC(=O)CC[C@@H](C)[C@H]2CC[C@H]3[C@@H]4CC[C@@H]5C[C@H](O)CC[C@]5(C)[C@H]4CC[C@]23C)C(=O)N[C@@H](CC(C)C)C(=O)N2C[C@H](O)C[C@H]2C(=O)N[C@@H](Cc2c[nH]c3ccccc23)C(=O)N[C@@H](CCN)C(=O)N[C@@H](Cc2cn(CC(=O)O)c3ccccc23)C(=O)N1C` [Example 1009] ({CH2CO}-Y[NMeA]NP[Dap](Lithocholoyl)L[Hyp]W[Dab][Trp(1-CH2COOH)][NMeNle][NMeNle]LCG-NH2; thioether N-14), under setting [1], the negative-log IC50 (pIC50) was 7.77. On the same count and under the same terms, the figure for `CCCC[C@H]1C(=O)N(C)[C@@H](CCCC)C(=O)N[C@@H](CC(C)C)C(=O)N[C@H](C(=O)NCC(N)=O)CSCC(=O)N[C@@H](Cc2ccc(O)cc2)C(=O)N(C)[C@@H](C)C(=O)N[C@@H](CC(N)=O)C(=O)N2CCC[C@H]2C(=O)N[C@@H](CNC(=O)CC[C@@H](C)[C@H]2CC[C@H]3[C@@H]4[C@H](O)C[C@@H]5C[C@H](O)CC[C@]5(C)[C@H]4C[C@H](O)[C@]23C)C(=O)N[C@@H](CC(C)C)C(=O)N2C[C@H](O)C[C@H]2C(=O)N[C@@H](Cc2c[nH]c3ccccc23)C(=O)N[C@@H](CCN)C(=O)N[C@@H](Cc2cn(CC(=O)OC)c3ccccc23)C(=O)N1C` [Example 1011] ({CH2CO}-Y[NMeA]NP[Dap](Cholyl)L[Hyp]W[Dab][Trp(1-CH2CO2Me)][NMeNle][NMeNle]LCG-NH2; thioether N-14) is 8.20. `CCCC[C@H]1C(=O)N(C)[C@@H](CCCC)C(=O)N[C@@H](CC(C)C)C(=O)N[C@H](C(=O)NCC(N)=O)CSCC(=O)N[C@@H](Cc2ccc(O)cc2)C(=O)N(C)[C@@H](C)C(=O)N[C@@H](CC(N)=O)C(=O)N2CCC[C@H]2C(=O)N[C@@H](CNC(=O)O[C@H]2CC[C@@]3(C)C(=CC[C@H]4[C@@H]5CC[C@H]([C@H](C)CCCC(C)C)[C@@]5(C)CC[C@@H]43)C2)C(=O)N[C@@H](CC(C)C)C(=O)N2C[C@H](O)C[C@H]2C(=O)N[C@@H](Cc2c[nH]c3ccccc23)C(=O)N[C@@H](CCN)C(=O)N[C@@H](Cc2cn(CC(=O)O)c3ccccc23)C(=O)N1C` [Example 1012] ({CH2CO}-Y[NMeA]NP[Dap](Cholesteryloxycarbonyl)L[Hyp]W[Dab][Trp(1-CH2COOH)][NMeNle][NMeNle]LCG-NH2; thioether N-14) had a pIC50 (HTRF IC50, PD-L1-His 10 nM) of 6.89. Consider `CCCC[C@H]1C(=O)N(C)[C@@H](CCCC)C(=O)N[C@@H](CC(C)C)C(=O)N[C@H](C(=O)NCC(N)=O)CSCC(=O)N[C@@H](Cc2ccc(O)cc2)C(=O)N(C)[C@@H](C)C(=O)N[C@@H](CC(N)=O)C(=O)N2CCC[C@H]2C(=O)N[C@@H](CNC(=O)CC[C@@H](C)[C@H]2CC[C@H]3[C@@H]4[C@H](O)C[C@@H]5C[C@H](O)CC[C@]5(C)[C@H]4CC[C@]23C)C(=O)N[C@@H](CC(C)C)C(=O)N2C[C@H](O)C[C@H]2C(=O)N[C@@H](Cc2c[nH]c3ccccc23)C(=O)N[C@@H](CCNC(=O)CC[C@@H](C)[C@H]2CC[C@H]3[C@@H]4[C@H](O)C[C@@H]5C[C@H](O)CC[C@]5(C)[C@H]4CC[C@]23C)C(=O)N[C@@H](Cc2cn(CC(=O)O)c3ccccc23)C(=O)N1C` [Example 1013] ({CH2CO}-Y[NMeA]NP[Dap](Chenodeoxycholyl)L[Hyp]W[Dab](Chenodeoxycholyl)[Trp(1-CH2COOH)][NMeNle][NMeNle]LCG-NH2; thioether N-14), for which, under setting [1], the pIC50 was 6.34.
